Experimental findings from patent US20230321012A1 (priority 2021, published 2023) are described below.

Entries after “also recorded” stand apart in the source; their conditions may differ.

Data set [1] in a line: Clinical safety and tolerability, dose-limiting toxicities (NCT03536728). Format: in vivo. From the text:
Clinical Trial Outline. […] All solid tumor types are eligible for the trial. […] DFMO was delivered orally twice daily in gel capsules.
These DLTs involved vomiting, diarrhea and nausea, and inferred a potential dual drug targeting of the gastrointestinal (GI) tract in these patients. One patient experienced severe dehydration, requiring hospitalization. A similar observation was made in dogs in Aminex's 28-day toxicological testing. […] The clinical observations and the data obtained in dog studies, together, support the hypothesis that combined oral drug dosing levels and DFMO targeting of the GI tract are causing the intolerance.
In cohorts before Part 2, Cohort 4, 14 adults were treated at 1,200 mg or higher of AMXT 1501 daily, either once daily or BID, with no DLTs. A total of 18 patients were treated at 800 mg AMXT 1501 or higher daily with no DLTs. These patients included a couple of adult patients where Cmax values above 1,000 ng/mL AMXT 1501 plasma levels were observed, again with no DLTs observed.

Data set [2] is described as follows: Water solubility, bioavailability and Biopharmaceutics Classification System class. The class given is physicochemical. Particulars: oral. The source says:
Interim data for the pharmacokinetic (PK) behavior of both agents in human subjects has been generated.

As for `CCCCCCCCCCCCCCCC(=O)NCCCC[C@@H](N)C(=O)NCCCNCCCCNCCCN` [AMXT 1501 dicaprate], the clinical tolerability result in data set [1] (oral 1,200 mg AMXT 1501 dicaprate alone, once daily or split BID) is listed as “well tolerated clinically; also recorded: well-tolerated clinically”. Moreover, the “GI adverse effects on changing from once daily to twice daily (BID) delivery” value in data set [1] (patients, similar dose levels) is listed as “greatly reduced; also recorded: substantially minimized”. In addition, the bioavailability entry in data set [2] is “low bioavailability”.
